Values of other authors in patent US12029822B2, “Drug delivery systems containing oxidized cholesterols” (Georgia Tech Research Corporation, priority 2019, dated 2024).

Test system: AB1-HA tumor
Settings: CTX treatment at Day 9

For `O=P1(N(CCCl)CCCl)NCCCO1` (stereo not shown) [CTX, Cyclophosphamide], the cure rate is listed as 75%.
